Key:
CK2α = molecular target: T1, CK2α (Homo sapiens, UniProt P68400); assay: Biochemical assay for inhibitors of CK2α kinase activity (ADP-Glo); details: 0.2 nM CK2α, 50 μM peptide substrate, 15 μM ATP, read-out: Assay 1: CK2α Enzyme IC50
T1 construct: CK2α (residues 2-329) was produced in Escherichia coli BL21 (DE3) for kinase activity screening; His6 (N, cleaved yes); made in house; host or cells: Escherichia coli BL21 (DE3)
T1 sequence (P68400 2-329): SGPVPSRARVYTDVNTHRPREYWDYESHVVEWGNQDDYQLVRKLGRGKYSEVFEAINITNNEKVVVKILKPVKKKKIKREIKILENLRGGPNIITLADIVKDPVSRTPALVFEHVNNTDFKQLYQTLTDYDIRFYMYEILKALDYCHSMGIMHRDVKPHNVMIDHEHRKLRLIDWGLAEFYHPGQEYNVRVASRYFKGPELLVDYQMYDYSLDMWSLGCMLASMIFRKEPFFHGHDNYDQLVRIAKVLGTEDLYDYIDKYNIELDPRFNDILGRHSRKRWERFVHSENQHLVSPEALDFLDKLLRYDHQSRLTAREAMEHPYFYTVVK

intracellular CK2α = molecular target: T2, intracellular CK2α (Homo sapiens, UniProt P19784); assay: Cell-based NanoBRET assay for inhibitor binding to intracellular CK2α; details: HCT116 cells transiently transfected with CSNK2A2-NanoLuc fusion vector; Tracer K-5; 2 h; read-out: Assay 3: NanoBRET ™ assay for binding to intracellular CK2α
T2 construct: host or cells: HCT116 (ATCC CCL-247)
T2 sequence (P19784 whole entry, the tested form may be a part): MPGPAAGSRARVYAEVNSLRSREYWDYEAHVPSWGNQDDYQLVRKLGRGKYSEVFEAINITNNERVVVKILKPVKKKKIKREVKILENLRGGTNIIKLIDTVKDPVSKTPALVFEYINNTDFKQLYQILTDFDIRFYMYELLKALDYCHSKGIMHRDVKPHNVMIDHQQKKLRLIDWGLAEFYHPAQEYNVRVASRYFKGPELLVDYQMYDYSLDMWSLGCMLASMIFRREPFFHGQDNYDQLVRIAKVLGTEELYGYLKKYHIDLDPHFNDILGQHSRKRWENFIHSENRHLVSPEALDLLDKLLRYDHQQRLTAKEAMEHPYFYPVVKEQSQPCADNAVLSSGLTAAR
Procedure, shortened: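 Apparent affinity came from BRET ratio (acceptor/donor ×1,000), with donor read at 450 nm and acceptor at 610 or 630 nm. Compounds competed off a tracer added at fixed concentration to cells carrying a NanoLuc-CK2α fusion.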

CLK2 = molecular target: T3, CLK2 (Homo sapiens, UniProt P49760); assay: Biochemical assay for inhibitors of CLK2 kinase activity (ADP-Glo); details: 20 nM CLK2, 50 μM peptide substrate, 100 μM ATP, read-out: Assay 2: CLK2 Enzyme IC50
T3 construct: purchased Carna Biosciences 04-127
T3 sequence (P49760 whole entry): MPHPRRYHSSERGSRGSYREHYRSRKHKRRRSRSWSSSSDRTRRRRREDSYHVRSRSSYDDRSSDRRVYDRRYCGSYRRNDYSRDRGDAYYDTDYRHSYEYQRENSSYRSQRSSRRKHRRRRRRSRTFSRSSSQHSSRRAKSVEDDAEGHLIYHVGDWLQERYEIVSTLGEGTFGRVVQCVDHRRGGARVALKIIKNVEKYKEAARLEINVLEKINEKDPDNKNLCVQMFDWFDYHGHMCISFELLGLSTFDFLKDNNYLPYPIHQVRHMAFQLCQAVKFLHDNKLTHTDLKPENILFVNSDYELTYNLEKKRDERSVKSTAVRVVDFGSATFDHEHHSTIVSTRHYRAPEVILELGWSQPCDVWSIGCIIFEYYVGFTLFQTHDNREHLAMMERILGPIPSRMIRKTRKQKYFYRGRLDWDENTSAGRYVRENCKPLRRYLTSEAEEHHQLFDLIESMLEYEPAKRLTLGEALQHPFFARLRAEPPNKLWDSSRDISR

IC50 (CK2α) | IC50 (intracellular CK2α) | IC50 (CLK2) | Compound
3.96 nM | > 50000 nM | 187 nM | FC(F)(F)c1ccc2[nH]c(CNCCCCOC3CN(c4cc(-n5cnnc5)cc5[nH]ncc45)C3)cc2c1 [Example 128, 4-((1-(6-(4H-1,2,4-triazol-4-yl)-1H-indazol-4-yl)azetidin-3-yl)oxy)-N-((5-(trifluoromethyl)-1H-indol-2-yl)methyl)butan-1-amine]
8.62 nM | 949 nM | 4680 nM | N#Cc1cc(-c2cc(NCCCNC(=O)CCNCc3ccc(OC(F)(F)F)c(Cl)c3)c3cn[nH]c3c2)cnn1 [Example 187, 3-((3-chloro-4-(trifluoromethoxy)benzyl)amino)-N-(3-((6-(6-cyanopyridazin-4-yl)-1H-indazol-4-yl)amino)propyl)propanamide]
72.9 nM | 3740 nM | 7320 nM | Cc1cnccc1-c1cc(NCCCNC(=O)CCNCc2ccc(OC(F)(F)F)c(Cl)c2)c2cn[nH]c2c1 [Example 165, 3-((3-chloro-4-(trifluoromethoxy)benzyl)amino)-N-(3-((6-(3-methylpyridin-4-yl)-1H-indazol-4-yl)amino)propyl)propanamide]
163 nM | > 50000 nM | 4160 nM | O=C(Cc1nnc(CCNCc2ccc(OC(F)(F)F)c(Cl)c2)[nH]1)Nc1cc(-n2cnnc2)cc2[nH]ncc12 [Example 65, N-(6-(4H-1,2,4-triazol-4-yl)-1H-indazol-4-yl)-2-(5-(2-((3-chloro-4-_(trifluoromethoxy)benzyl)amino)ethyl)-4H-1,2,4-triazol-3-yl)acetamide]
1.21 nM | 87.1 nM | 355 nM | C[C@@H](CCCOCCNc1cc(-c2cnnc(O)c2)cc2[nH]ncc12)NCc1cc(CO)cc(OC(F)(F)F)c1 [Example 193, (S)-5-(4-((2-((4-((3-(hydroxymethyl)-5-(trifluoromethoxy)benzyl)amino)pentyl)oxy)ethyl)amino)-1H-indazol-6-yl)pyridazin-3-ol]
255 nM | > 50000 nM | 15300 nM | FC(F)(F)c1ccc2[nH]c(CNCCCCOC3CN(c4cc(-c5ccnnc5)cc5[nH]nnc45)C3)cc2c1 [Example 149, 4-((1-(6-(pyridazin-4-yl)-1H-benzo[d][1,2,3]triazol-4-yl)azetidin-3-yl)oxy)-N-((5-(trifluoromethyl)-1H-indol-2-yl)methyl)butan-1-amine]
2.64 nM | 735 nM | 18.6 nM | COc1n[nH]cc1-c1cc(NCCCNC(=O)CCNCc2ccc(-c3ccccc3)c(Cl)c2)c2cn[nH]c2c1 [Example 76, 3-(((2-chloro-[1,1′-biphenyl]-4-yl)methyl)amino)-N-(3-((6-(3-methoxy-1H-pyrazol-4-yl)-1H-indazol-4-yl)amino)propyl)propanamide]
10.7 nM | 1240 nM | 1910 nM | O=C(CCNCc1ccc(OC(F)(F)F)c(Cl)c1)NCCCNc1cc(-c2cocn2)cc2[nH]ncc12 [Example 175, 3-((3-chloro-4-(trifluoromethoxy)benzyl)amino)-N-(3-((6-(oxazol-4-yl)-1H-indazol-4-yl)amino)propyl)propanamide]
7.69 nM | 8550 nM | 568 nM | Cc1nc(-c2cc(NCCCNC(=O)CCNCc3ccc(-c4ccccc4)c(Cl)c3)c3cn[nH]c3c2)c[nH]1 [Example 9, 3-(((2-chloro-[1,1′-biphenyl]-4-yl)methyl)amino)-N-(3-((6-(2-methyl-1H-imidazol-4-yl)-1H-indazol-4-yl)amino)propyl)propanamide]
84.6 nM | 3250 nM | 141 nM | OCc1cc(CNCCCCOC2CN(c3cc(-c4cnoc4)cc4[nH]ncc34)C2)cc(C(F)(F)F)c1 [Example 120, (3-(((4-((1-(6-(isoxazol-4-yl)-1H-indazol-4-yl)azetidin-3-yl)oxy)butyl)amino)methyl)-5-(trifluoromethyl)phenyl)methanol]
115 nM | 9910 nM | 6460 nM | Cc1cc(CC#N)cc(CNCCCCOC2CN(c3cc(-c4ccnnc4)cc4[nH]ncc34)C2)c1 [Example 115, 2-(3-methyl-5-(((4-((1-(6-(pyridazin-4-yl)-1H-indazol-4-yl)azetidin-3-yl)oxy)butyl)amino)methyl)phenyl)acetonitrile]
19.1 nM | 1110 nM | 221 nM | N#Cc1cc(NCCCNC(=O)CCNCc2ccc(OC(F)(F)F)c(Cl)c2)c2cn[nH]c2c1 [Example 160, 3-((3-chloro-4-(trifluoromethoxy)benzyl)amino)-N-(3-((6-cyano-1H-indazol-4-yl)amino)propyl)propanamide]
216 nM | > 3000 nM | 23300 nM | OCCOc1cc(CNCCCCOCCNc2cccc3[nH]ncc23)cc(OC(F)(F)F)c1 [Example 202, 2-(3-(((4-(2-((1H-indazol-4-yl)amino)ethoxy)butyl)amino)methyl)-5-(trifluoromethoxy)phenoxy)ethan-1-ol]
49.7 nM | > 50000 nM | 5820 nM | FC(F)(F)c1ccc2[nH]c(CNCCCCOC3CN(c4cc(-n5cnnc5)cc5[nH]nnc45)C3)cc2c1 [Example 152, 4-((1-(6-(4H-1,2,4-triazol-4-yl)-1H-benzo[d][1,2,3]triazol-4-yl)azetidin-3-yl)oxy)-N-((5-(trifluoromethyl)-1H-indol-2-yl)methyl)butan-1-amine]
472 nM | > 50000 nM | > 50000 nM | O=C(CCNCc1ccc(-c2ccccc2)c(Cl)c1)NCCCNc1cc(N2CCOCC2)cc2[nH]ncc12 [Example 78, 3-(((2-chloro-[1,1′-biphenyl]-4-yl)methyl)amino)-N-(3-((6-morpholino-1H-indazol-4-yl)amino)propyl)propanamide]
10.2 nM | 2800 nM | 2030 nM | FC(F)(F)c1ccc2[nH]c(CNCCCCOC3CN(c4cc(-c5ccnnc5)cc5[nH]ncc45)C3)cc2c1 [Example 140, 4-((1-(6-(pyridazin-4-yl)-1H-indazol-4-yl)azetidin-3-yl)oxy)-N-((5-(trifluoromethyl)-1H-indol-2-yl)methyl)butan-1-amine]

Compound | IC50 (CK2α) | IC50 (intracellular CK2α) | IC50 (CLK2)
FC(F)(F)Oc1ccc(CNCCCCOCCNc2cc(-c3ccnnc3)cc3[nH]nnc23)cc1Cl [Example 99, N-(2-(4-((3-chloro-4-(trifluoromethoxy)benzyl)amino)butoxy)ethyl)-6-(pyridazin-4-yl)-1H-benzo[d][1,2,3]triazol-4-amine] | 20.1 nM | 1010 nM | 28000 nM
c1cc(-c2cc(OCCOCCCCNCc3cc4cc(OC5CCC5)ccc4[nH]3)c3cn[nH]c3c2)cnn1 [Example 55, N-((5-cyclobutoxy-1H-indol-2-yl)methyl)-4-(2-((6-(pyridazin-4-yl)-1H-indazol-4-yl)oxy)ethoxy)butan-1-amine] | 1.25 nM | 149 nM | 4740 nM
Cn1c(CNCCCCOCCNc2cc(-n3cnnc3)cc3[nH]ncc23)cc2cc(C(F)(F)F)ccc21 [Example 51, N-(2-(4-(((1-methyl-5-(trifluoromethyl)-1H-indol-2-yl)methyl)amino)butoxy)ethyl)-6-(4H-1,2,4-triazol-4-yl)-1H-indazol-4-amine] | 0.71 nM | 72.1 nM | 225 nM
Fc1cc(CNCCCCOCCNc2c(Cl)c(-n3cnnc3)cc3[nH]ncc23)cc(F)c1OC(F)(F)F [Example 186, 5-chloro-N-(2-(4-((3,5-difluoro-4-(trifluoromethoxy)benzyl)amino)butoxy)ethyl)-6-(4H-1,2,4-triazol-4-yl)-1H-indazol-4-amine] | 717 nM | > 48900 nM | 4750 nM
Cn1c(CNCCCCOCCNc2cc(-n3cnnc3)cc3[nH]ncc23)cc2ccc(Cl)cc21 [Example 50, N-(2-(4-(((6-chloro-1-methyl-1H-indol-2-yl)methyl)amino)butoxy)ethyl)-6-(4H-1,2,4-triazol-4-yl)-1H-indazol-4-amine] | 2.2 nM | 153 nM | 94 nM
c1cc2[nH]c(CNCCCCOCCNc3cc(-n4cnnc4)cc4[nH]ncc34)cc2cc1OC1CCC1 [Example 53, N-(2-(4-(((5-cyclobutoxy-1H-indol-2-yl)methyl)amino)butoxy)ethyl)-6-(4H-1,2,4-triazol-4-yl)-1H-indazol-4-amine] | 0.33 nM | 159 nM | 119 nM
c1cc2[nH]c(CNCCCCOC3CN(c4cc(-n5cnnc5)cc5[nH]ncc45)C3)cc2cc1OC1CCC1 [Example 124, 4-((1-(6-(4H-1,2,4-triazol-4-yl)-1H-indazol-4-yl)azetidin-3-yl)oxy)-N-((5-cyclobutoxy-1H-indol-2-yl)methyl)butan-1-amine] | 7.44 nM | 1990 nM | 134 nM

— patent US20260085062A1, “NOVEL COMPOUNDS AS CK2 INHIBITORS” (Cambridge Enterprise Limited, priority 2022, published 2026)
